# Test results: patent US9670162B2, “Mitochondrial aldehyde dehyrogenase-2 modulators and methods of use thereof” (The Board of Trustees of the Leland Stanford Junior …, priority 2013, dated 2017)
# Positions count from the first letter of the chain named.
# How the values were obtained:
# human ALDH2 wild type = target: T1, human ALDH2 wild type (Homo sapiens, UniProt P05091); assay: ALDH2 enzymatic assay (NADH at 340 nm), recombinant wild type enzyme; format: biochemical; design: key: −: no activation or inhibition; +: activation less than control 1; ++: activation similar to control 1, within 10%; +++: activation more than control 1 and less than control (compound 161); ++++: activation similar to compound 161, within 10%; details: activation relative to benchmarks control 1 and compound 161
# T1 construct: His-tag (pTrcHis vector) (N); made in house; host or cells: E. coli BL21
# T1 sequence (P05091 18-517): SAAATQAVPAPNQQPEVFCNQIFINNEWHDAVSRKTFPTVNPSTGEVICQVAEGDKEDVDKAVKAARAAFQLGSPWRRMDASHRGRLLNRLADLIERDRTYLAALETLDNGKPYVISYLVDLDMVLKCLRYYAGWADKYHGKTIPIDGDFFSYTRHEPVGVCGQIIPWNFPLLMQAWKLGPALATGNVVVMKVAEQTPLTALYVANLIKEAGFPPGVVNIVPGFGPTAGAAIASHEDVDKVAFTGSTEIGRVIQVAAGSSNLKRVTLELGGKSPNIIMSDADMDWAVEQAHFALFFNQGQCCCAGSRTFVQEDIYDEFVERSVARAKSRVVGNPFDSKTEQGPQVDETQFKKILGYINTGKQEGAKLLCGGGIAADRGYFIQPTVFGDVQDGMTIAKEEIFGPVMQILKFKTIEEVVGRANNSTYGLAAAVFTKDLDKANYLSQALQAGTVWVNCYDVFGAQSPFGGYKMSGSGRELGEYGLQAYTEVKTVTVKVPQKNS
# Source text: (§1) ALDH2 catalyzes the oxidative reaction of substrate acetaldehyde to acetic acid using NAD^+ as a cofactor. Enzymatic activity, or catalytic rate, of aldehyde dehydrogenase (ALDH2) can be measured spectrophotometrically at UV wavelength λ340 nm by the accumulation of reduced product NADH derived from NAD^+. […] This method is well-established in the literature [e.g. D. K. Rex, W. F. Bosron, J. E. Smialek, T. K. Li, Alcohol Clin Exp Res 9, 147 (1985)].
# (§2) Full-length wild type human ALDH2 cDNA was purchased from ATCC (No. MGC-1806. GenBank ID: BC002967). The 18-amino acid mitochondria transport signal sequence was removed by PCR and cloned into the NheI/HindIII sites of a His-tag vector, pTrcHis, using standard molecular cloning techniques. The human ALDH2* cDNA construct containing the Asian E487K mutation was obtained by site-directed mutagenesis to create the E487K substitution of the wild type ALDH2. Both human clones were designed to express a recombinant protein with the His-tag at the N-terminus of the protein. For the co-expression experiments of human ALDH2 wild type and ALDH2*2 heterotetramers, a wild type ALDH2 gene and a ALDH2 E487K gene were inserted separately into the two multiple cloning sites of pETDuet-1 vector. (Novagen, Calif., USA). All the vectors were transformed into BL21 E. coli host cells and subjected to 0.5 mM IPTG induction for protein expression at 30° C. Purifications of the recombinant proteins by affinity nickel columns (HisTrap, GE Healthy Science, USA) were carried out using standard protocols according to manufacturer's instructions (Novagen, USA).
# (§3) Control 1 and compound 161 are used as benchmarks and the symbols have the following representation: […]
# [1] = target: T2, human ALDH2*2 recombinant mutant enzyme (E487K) (Homo sapiens, UniProt P05091, E504K); assay: ALDH2 enzymatic assay (NADH at 340 nm), recombinant mutant enzyme; format: biochemical; design: key: −: no activation or inhibition; +: activation less than control 1; ++: activation similar to control 1, within 10%; +++: activation more than control 1 and less than control (compound 161); ++++: activation similar to compound 161, within 10%; details: activation relative to benchmarks control 1 and compound 161
# T2 construct: His-tag (pTrcHis vector) (N); made in house; host or cells: E. coli BL21
# T2 sequence (P05091 18-517 E504K): T1 sequence (P05091 18-517) with E487K
# Source text: as §1, §2, §3
compound,measurement,setting,value
COc1ccc(CNC(=O)c2c(Cl)ccnc2OCC2CCCN2)cc1F (stereo not drawn) [Compound 204],ALDH2 (wild-type),human ALDH2 wild type,+
same,ALDH2 (mutant),[1],+
COc1ccc(CNC(=O)c2c(Cl)ccnc2OCC2CCNC2)cc1F (stereo not drawn) [Compound 205],ALDH2 (wild-type),human ALDH2 wild type,+
same,ALDH2 (mutant),[1],+
COc1ccc(CNC(=O)c2c(Cl)ccnc2Oc2ccccc2)cc1F [Compound 206],ALDH2 (wild-type),human ALDH2 wild type,++
same,ALDH2 (mutant),[1],+
COc1ccc(CNC(=O)c2c(Cl)ccnc2SC)cc1F [Compound 213],ALDH2 (wild-type),human ALDH2 wild type,++
same,ALDH2 (mutant),[1],++
CCSc1nccc(Cl)c1C(=O)NCc1ccc(OC)c(F)c1 [Compound 214],ALDH2 (wild-type),human ALDH2 wild type,++
same,ALDH2 (mutant),[1],++
CCCSc1nccc(Cl)c1C(=O)NCc1ccc(OC)c(F)c1 [Compound 215],ALDH2 (wild-type),human ALDH2 wild type,++++
same,ALDH2 (mutant),[1],+++
COc1ccc(CNC(=O)c2c(Cl)ccnc2SC(C)C)cc1F [Compound 216],ALDH2 (wild-type),human ALDH2 wild type,+
same,ALDH2 (mutant),[1],+
CCC(C)Sc1nccc(Cl)c1C(=O)NCc1ccc(OC)c(F)c1 (stereo not drawn) [Compound 217],ALDH2 (wild-type),human ALDH2 wild type,+
same,ALDH2 (mutant),[1],++
COc1ccc(CNC(=O)c2c(Cl)ccnc2SCC(C)C)cc1F [Compound 218],ALDH2 (wild-type),human ALDH2 wild type,+
same,ALDH2 (mutant),[1],+
COc1ccc(CNC(=O)c2c(Cl)ccnc2S(C)(=O)=O)cc1F [Compound 219],ALDH2 (wild-type),human ALDH2 wild type,+
same,ALDH2 (mutant),[1],+
CCS(=O)(=O)c1nccc(Cl)c1C(=O)NCc1ccc(OC)c(F)c1 [Compound 220],ALDH2 (wild-type),human ALDH2 wild type,+
same,ALDH2 (mutant),[1],+
CCCS(=O)(=O)c1nccc(Cl)c1C(=O)NCc1ccc(OC)c(F)c1 [Compound 221],ALDH2 (wild-type),human ALDH2 wild type,+
same,ALDH2 (mutant),[1],+
COc1ccc(CNC(=O)c2c(Cl)ccnc2S(=O)(=O)C(C)C)cc1F [Compound 222],ALDH2 (wild-type),human ALDH2 wild type,+
same,ALDH2 (mutant),[1],+
CCC(C)S(=O)(=O)c1nccc(Cl)c1C(=O)NCc1ccc(OC)c(F)c1 (stereo not drawn) [Compound 223],ALDH2 (wild-type),human ALDH2 wild type,+
same,ALDH2 (mutant),[1],+
COc1ccc(CNC(=O)c2c(Cl)ccnc2S(=O)(=O)CC(C)C)cc1F [Compound 224],ALDH2 (wild-type),human ALDH2 wild type,+
same,ALDH2 (mutant),[1],+
COc1ccc(CNC(=O)c2c(C(F)(F)F)ccnc2OCC2CC2)cc1F [Compound 225],ALDH2 (wild-type),human ALDH2 wild type,+
same,ALDH2 (mutant),[1],+
COc1ccc(CNC(=O)c2c(C(F)(F)F)ccnc2OCC(C)C)cc1F [Compound 226],ALDH2 (wild-type),human ALDH2 wild type,+
same,ALDH2 (mutant),[1],+
COc1ccc(CNC(=O)c2c(C(F)(F)F)ccnc2OC(C)C)cc1F [Compound 227],ALDH2 (wild-type),human ALDH2 wild type,+
same,ALDH2 (mutant),[1],+
CCC(CC)Oc1nccc(C(F)(F)F)c1C(=O)NCc1ccc(OC)c(F)c1 [Compound 228],ALDH2 (wild-type),human ALDH2 wild type,+
same,ALDH2 (mutant),[1],+
COc1ccc(CNC(=O)c2c(C(F)(F)F)ccnc2OCC2CCC2)cc1F [Compound 229],ALDH2 (wild-type),human ALDH2 wild type,+
same,ALDH2 (mutant),[1],+
COc1ccc(CNC(=O)c2c(C(F)(F)F)ccnc2OCC2CCCC2)cc1F [Compound 230],ALDH2 (wild-type),human ALDH2 wild type,+
same,ALDH2 (mutant),[1],+
COc1ccc(CNC(=O)c2c(C)ccnc2OCC2CC2)cc1F [Compound 231],ALDH2 (wild-type),human ALDH2 wild type,+
same,ALDH2 (mutant),[1],++
COc1ccc(CNC(=O)c2c(C)ccnc2OCC(C)C)cc1F [Compound 232],ALDH2 (wild-type),human ALDH2 wild type,+
same,ALDH2 (mutant),[1],+
COc1ccc(CNC(=O)c2c(C)ccnc2OC(C)C)cc1F [Compound 233],ALDH2 (wild-type),human ALDH2 wild type,+
same,ALDH2 (mutant),[1],+
CCC(CC)Oc1nccc(C)c1C(=O)NCc1ccc(OC)c(F)c1 [Compound 234],ALDH2 (wild-type),human ALDH2 wild type,+
same,ALDH2 (mutant),[1],+
COc1ccc(CNC(=O)c2c(C)ccnc2OCC2CCC2)cc1F [Compound 235],ALDH2 (wild-type),human ALDH2 wild type,+
same,ALDH2 (mutant),[1],+
COc1ccc(CNC(=O)c2c(C)ccnc2OCC2CCCC2)cc1F [Compound 236],ALDH2 (wild-type),human ALDH2 wild type,+
same,ALDH2 (mutant),[1],+
COc1ccc(CNC(=O)c2c(C)ccnc2OCC2CCNC2)cc1F (stereo not drawn) [Compound 237],ALDH2 (wild-type),human ALDH2 wild type,+
same,ALDH2 (mutant),[1],+
COc1ccc(CNC(=O)c2c(C)ccnc2OC2CCC2)cc1F [Compound 238],ALDH2 (wild-type),human ALDH2 wild type,+
same,ALDH2 (mutant),[1],+
COc1ccc(CNC(=O)c2c(Cl)cncc2OCC2CC2)cc1F [Compound 239],ALDH2 (wild-type),human ALDH2 wild type,++
same,ALDH2 (mutant),[1],+++
COc1ccc(CNC(=O)c2c(Cl)cncc2OCC(C)C)cc1F [Compound 240],ALDH2 (wild-type),human ALDH2 wild type,+
same,ALDH2 (mutant),[1],++
O=C(NCc1ccc2c(c1)CCCO2)c1c(Cl)ccnc1OCC1CC1 [Compound 244],ALDH2 (wild-type),human ALDH2 wild type,++
same,ALDH2 (mutant),[1],+
O=C(NCc1ccc2c(c1)CCO2)c1c(Cl)ccnc1OCC1CC1 [Compound 245],ALDH2 (wild-type),human ALDH2 wild type,+
same,ALDH2 (mutant),[1],+++
COc1ncc(CNC(=O)c2c(Cl)ccnc2OCC2CC2)cc1F [Compound 246],ALDH2 (wild-type),human ALDH2 wild type,+
same,ALDH2 (mutant),[1],++
COc1ccc(CN(C)C(=O)c2c(Cl)ccnc2OCC2CC2)cc1F [Compound 247],ALDH2 (wild-type),human ALDH2 wild type,−
same,ALDH2 (mutant),[1],−
O=C(NCc1ccc(O)c(F)c1)c1c(Cl)ccnc1OCC1CC1 [Compound 248],ALDH2 (wild-type),human ALDH2 wild type,−
same,ALDH2 (mutant),[1],−
COc1ccc(C(C)NC(=O)c2c(Cl)ccnc2OCC2CC2)cc1F (stereo not drawn) [Compound 249],ALDH2 (wild-type),human ALDH2 wild type,+
same,ALDH2 (mutant),[1],+
COc1ccc(CNC(=O)c2c(Cl)ccnc2CCC(C)C)cc1F [Compound 250],ALDH2 (wild-type),human ALDH2 wild type,+
same,ALDH2 (mutant),[1],+
COc1ccc(CNC(=O)c2c(OC)ccnc2OCC2CC2)cc1F [Compound 251],ALDH2 (wild-type),human ALDH2 wild type,+
same,ALDH2 (mutant),[1],+
COc1c(F)cc(CNC(=O)c2c(Cl)ccnc2OCC(C)C)cc1F [Compound 252],ALDH2 (wild-type),human ALDH2 wild type,+
same,ALDH2 (mutant),[1],+
CS(=O)(=O)c1ccc(CNC(=O)c2c(Cl)ccnc2OCC2CC2)cc1F [Compound 253],ALDH2 (wild-type),human ALDH2 wild type,+
same,ALDH2 (mutant),[1],+
O=C(NCc1ccc(=O)[nH]c1)c1c(Cl)ccnc1OCC1CC1 [Compound 254],ALDH2 (wild-type),human ALDH2 wild type,+
same,ALDH2 (mutant),[1],+
COc1ccc(CNC(=O)c2c(Cl)ccnc2OCC2CC2)cn1 [Compound 255],ALDH2 (wild-type),human ALDH2 wild type,+
same,ALDH2 (mutant),[1],+
COc1ccc(CNC(=O)c2c(Cl)ccnc2OCC2CC2)cc1C [Compound 256],ALDH2 (wild-type),human ALDH2 wild type,+
same,ALDH2 (mutant),[1],+
O=C(NCc1ccc2occc2c1)c1c(Cl)ccnc1OCC1CC1 [Compound 257],ALDH2 (wild-type),human ALDH2 wild type,+
same,ALDH2 (mutant),[1],+
O=C1OCc2cc(CNC(=O)c3c(Cl)ccnc3OCC3CC3)ccc21 [Compound 258],ALDH2 (wild-type),human ALDH2 wild type,+
same,ALDH2 (mutant),[1],−
O=C(NCc1ccc2ncoc2c1)c1c(Cl)ccnc1OCC1CC1 [Compound 259],ALDH2 (wild-type),human ALDH2 wild type,+
same,ALDH2 (mutant),[1],+
O=C(NCc1ccc2ocnc2c1)c1c(Cl)ccnc1OCC1CC1 [Compound 260],ALDH2 (wild-type),human ALDH2 wild type,+
same,ALDH2 (mutant),[1],−
